{"source": "paper PMC3581075", "about": "(Journal of pharmaceutical sciences, 2011)", "key": {"rat hepatocytes [1]": {"system": "rat hepatocytes", "conditions": "2 min, rifampin 10 μM, MK-571 100 μM"}, "OATP1B3": {"target": "T1, OATP1B3 (Homo sapiens, UniProt Q9NPD5)", "T1 sequence (Q9NPD5 1-702)": "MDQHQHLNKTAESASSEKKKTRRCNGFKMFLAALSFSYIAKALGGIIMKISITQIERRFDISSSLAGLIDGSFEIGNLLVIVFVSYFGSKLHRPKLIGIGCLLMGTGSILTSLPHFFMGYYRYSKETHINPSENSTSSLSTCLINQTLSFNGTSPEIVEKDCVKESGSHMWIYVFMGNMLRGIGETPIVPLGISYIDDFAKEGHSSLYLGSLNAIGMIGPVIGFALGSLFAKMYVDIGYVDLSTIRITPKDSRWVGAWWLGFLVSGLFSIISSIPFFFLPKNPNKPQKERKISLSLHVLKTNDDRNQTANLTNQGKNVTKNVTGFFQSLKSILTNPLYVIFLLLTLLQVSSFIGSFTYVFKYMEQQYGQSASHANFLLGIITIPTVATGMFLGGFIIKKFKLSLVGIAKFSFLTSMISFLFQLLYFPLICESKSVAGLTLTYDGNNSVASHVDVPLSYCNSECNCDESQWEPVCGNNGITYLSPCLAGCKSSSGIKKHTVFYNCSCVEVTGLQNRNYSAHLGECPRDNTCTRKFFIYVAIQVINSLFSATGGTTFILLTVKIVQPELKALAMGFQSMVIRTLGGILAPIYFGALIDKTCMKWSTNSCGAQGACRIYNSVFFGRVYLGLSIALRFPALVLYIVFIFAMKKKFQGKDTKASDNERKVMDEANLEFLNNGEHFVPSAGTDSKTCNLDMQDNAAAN", "conditions": "on average; p<0.05"}, "OATP2B1": {"target": "T2, OATP2B1 (Homo sapiens, UniProt O94956)", "T2 sequence (O94956 1-709)": "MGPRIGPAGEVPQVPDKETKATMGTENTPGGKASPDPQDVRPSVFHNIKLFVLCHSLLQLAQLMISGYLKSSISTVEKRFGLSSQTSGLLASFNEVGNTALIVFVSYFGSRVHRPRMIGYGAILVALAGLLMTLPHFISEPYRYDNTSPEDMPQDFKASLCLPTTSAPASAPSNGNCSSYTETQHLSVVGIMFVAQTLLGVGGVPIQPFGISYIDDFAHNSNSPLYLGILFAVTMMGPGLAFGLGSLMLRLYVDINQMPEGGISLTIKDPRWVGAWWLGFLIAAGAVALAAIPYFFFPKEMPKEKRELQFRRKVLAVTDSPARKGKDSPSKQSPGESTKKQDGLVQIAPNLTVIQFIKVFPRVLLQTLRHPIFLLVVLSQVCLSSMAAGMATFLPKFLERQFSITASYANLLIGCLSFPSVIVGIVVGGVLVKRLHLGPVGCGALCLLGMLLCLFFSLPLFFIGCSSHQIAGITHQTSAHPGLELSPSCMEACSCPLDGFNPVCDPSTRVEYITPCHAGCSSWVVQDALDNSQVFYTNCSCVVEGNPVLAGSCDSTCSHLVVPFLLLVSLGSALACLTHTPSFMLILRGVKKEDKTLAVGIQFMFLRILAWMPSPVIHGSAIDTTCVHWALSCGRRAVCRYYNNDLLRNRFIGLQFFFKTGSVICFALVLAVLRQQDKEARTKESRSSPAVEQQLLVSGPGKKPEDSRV", "conditions": "on average; p<0.05"}, "rat hepatocytes [2]": {"system": "rat hepatocytes"}, "[3]": {"conditions": "classification by solubility, permeability and extent of metabolism; cited from earlier work"}, "rat hepatocytes [4]": {"system": "rat hepatocytes", "remark": "listed apart in the source"}, "pooled rat microsomes [5]": {"system": "pooled rat microsomes", "test": "Microsome incubations, pooled rat microsomes", "conditions": "propranolol 10 μM, 0.5 mg/ml microsomes, 30 min, 37°C; rifampin 10 μM, quinidine 30 μM"}, "pooled human microsomes [6]": {"system": "pooled human microsomes", "test": "Microsome incubations, pooled human microsomes", "conditions": "propranolol 10 μM; quinidine 30 μM"}, "rat hepatocytes [7]": {"system": "rat hepatocytes", "remark": "listed apart in the source"}, "pooled rat microsomes [8]": {"system": "pooled rat microsomes"}, "pooled human microsomes [9]": {"system": "pooled human microsomes"}}, "note": "Counter-ions that a name gives are not always drawn. Like-named read-outs stand apart in the source and are kept apart here."}
{"compound": "CN(C)C(=O)CCSC(SCCC(=O)O)c1cccc(/C=C/c2ccc3ccc(Cl)cc3n2)c1", "note": "(stereo not shown) [MK-571]", "values": [{"measurement": "Change of uptake of propranolol in rat hepatocytes", "setting": "rat hepatocytes [1]; propranolol 10 μM, n=4", "value": "not significantly changed"}]}
{"compound": "CC12CCC3c4ccc(OS(=O)(=O)O)cc4CCC3C1CCC2=O", "note": "(stereo not shown) [[^3H]-estrone sulfate]", "values": [{"measurement": "Decrease of uptake in pcMV6 empty vector control vs OATP1B3 transfected cells", "setting": "OATP1B3", "value": 50, "unit": "%"}, {"measurement": "Decrease of uptake in pcMV6 empty vector control vs OATP2B1 transfected cells", "setting": "OATP2B1", "value": 80, "unit": "%"}]}
{"compound": "CC[C@H](C)[C@H](NC(=O)[C@H](CC(=O)O)NC(=O)[C@H](CC(C)C)NC(=O)[C@H](Cc1cnc[nH]1)NC(=O)[C@@H]1CSSC[C@H](N)C(=O)N[C@@H](CO)C(=O)N[C@H]2CSSC[C@H](NC(=O)[C@H](CCC(=O)O)NC(=O)[C@H](CCCCN)NC(=O)[C@H](CC(=O)O)NC(=O)[C@H](CCSC)NC(=O)[C@H](CC(C)C)NC(=O)[C@H](CO)NC(=O)[C@H](CO)NC2=O)C(=O)N[C@@H](C(C)C)C(=O)N[C@@H](Cc2ccc(O)cc2)C(=O)N[C@@H](Cc2ccccc2)C(=O)N1)C(=O)N[C@H](C(=O)N[C@@H](Cc1c[nH]c2ccccc12)C(=O)O)[C@@H](C)CC", "note": "[endothelin]", "values": [{"measurement": "Inhibition of uptake of losartan in rat hepatocytes", "setting": "rat hepatocytes [2]", "value": 22, "unit": "%"}]}
{"compound": "CCCCc1ncc(/C=C(\\Cc2cccs2)C(=O)O)n1Cc1ccc(C(=O)O)cc1", "note": "[eprosartan]", "values": [{"measurement": "BDDCS class", "setting": "[3]", "value": "Class 4"}]}
{"compound": "CCCCc1nc(Cl)c(CO)n1Cc1ccc(-c2ccccc2-c2nn[nH]n2)cc1", "note": "[losartan]", "values": [{"measurement": "Change in AUC of the cumulative metabolite", "setting": "rat hepatocytes [4]", "value": "no change in metabolite formation"}, {"measurement": "BDDCS class", "setting": "[3]", "value": "Class 2"}]}
{"compound": "CC(C)NCC(O)COc1cccc2ccccc12", "note": "(stereo not shown) [propranolol]", "values": [{"measurement": "BDDCS class", "setting": "[3]", "value": "Class 1"}]}
{"compound": "C=C[C@H]1C[N@@]2CC[C@H]1C[C@@H]2[C@@H](O)c1ccnc2ccc(OC)cc12", "note": "[quinidine]", "values": [{"measurement": "Effect on metabolism of propranolol in rat microsomes", "setting": "pooled rat microsomes [5]", "value": "inhibit metabolism"}, {"measurement": "Effect on metabolism of propranolol in human microsomes", "setting": "pooled human microsomes [6]", "value": "inhibited propranolol metabolism"}]}
{"compound": "CO[C@H]1/C=C/O[C@@]2(C)Oc3c(C)c(O)c4c(O)c(c(/C=N/N5CCN(C)CC5)c(O)c4c3C2=O)NC(=O)/C(C)=C\\C=C\\[C@H](C)[C@H](O)[C@@H](C)[C@@H](O)[C@@H](C)[C@H](OC(C)=O)[C@@H]1C", "note": "[rifampin]", "values": [{"measurement": "Change of uptake of eprosartan in rat hepatocytes compared to normal serum", "setting": "rat hepatocytes [7]", "value": "no significant differences"}, {"measurement": "Decrease of uptake of losartan in human hepatocytes compared to normal serum", "setting": "human hepatocytes", "value": 55, "unit": "%"}, {"measurement": "Effect on metabolism of losartan in rat microsomes", "setting": "pooled rat microsomes [8]", "value": "no change in metabolism"}]}
{"compound": "Nc1ccc(S(=O)(=O)Nc2ccnn2-c2ccccc2)cc1", "note": "[sulfaphenazole]", "values": [{"measurement": "Effect on metabolism of losartan in rat microsomes", "setting": "pooled rat microsomes [8]", "value": "decrease in metabolism"}, {"measurement": "Effect on metabolism of losartan in human microsomes", "setting": "pooled human microsomes [9]", "value": "no inhibition of metabolism"}]}
{"compound": "IL-6: interleukin-6, tested as uremic toxin", "values": [{"measurement": "Inhibition of uptake of losartan in rat hepatocytes", "setting": "rat hepatocytes [1]; losartan 10 μM, p<0.05, n=4", "value": 28, "unit": "%"}]}
